Here are results for two molecules from patent US9969972B2, “Pluripotent stem cell culture on micro-carriers” (Janssen Biotech, Inc., priority 2008, dated 2018).

In one test the test system is H1 and H9 cells. The test is described as follows: Attachment of H1 and H9 cells to micro-carrier beads in MEF-CM with 10 μM Y27632. Format: cell-based, human. The conditions noted are these: 10 μM in MEF-CM, static culture. On the procedure:
To improve the attachment and proliferation of human embryonic stem cells on micro-carriers, a small molecule inhibitor of Rho-associated coiled coil forming protein serine/threonine kinase, Rho kinase inhibitor was added to the media. Specifically, Y27632, Y, (Sigma-Aldrich, MO) was used. MEF-CM plus 10 μM Y27632 (Sigma-Aldrich, MO) was changed daily. […] By analysis of images, human embryonic stem cells grown on HILLEX®II micro-carriers (Solohill, MI) appeared to attach and proliferate better than human embryonic stem cells on other micro-carriers tested. Additionally, H9 cells attached better to HILLEX®II (Solohill, MI) in the presence of the Rho kinase inhibitor (FIG. 1A compared to 1B).
The H1 human embryonic cell line was also tested for growth on micro-carriers for large-scale expansion. Because a Rho kinase inhibitor, Y27632 (Sigma-Aldrich, MO), was necessary for attachment of the H9 cell line, it was also assumed to be necessary for H1 cells. Cytodex 1®, Cytodex 3® (GE Healthcare Life Sciences, NJ), HILLEX®II, Plastic, ProNectinF, Plastic Plus micro-carriers (SoloHill Ann Arbor, MI) were prepared according to the manufacturer's instructions. […] After 3, 5 and 7 days, one well was imaged, harvested, and counted. […] Cells were detached according to Example 4 and counted for yield.

Test [1] relates to H1 cells. The test is described as follows: Dose titration of Rho kinase inhibitor, H1 cells on micro-carriers. Format: cell-based, human. On the procedure: Next a dose titration of the Rho kinase inhibitor was attempted since it has been characterized as a […]. H1 cells at passage 48 were dissociated from MATRIGEL™ (BD Biosciences, CA) coated plates with TrypLE™ Express. The cells were then seeded onto 15 cm^2 of micro-carriers into a single well of a 12 well non-tissue culture treated plate. HILLEX®II (Solohill, MI), Cytodex 1®, or Cytodex 3® (GE Healthcare Life Sciences, NJ) micro-carriers were tested with decreasing amounts of Rho kinase inhibitor: 10 μM Y27632 (Sigma-Aldrich, MO) was used on day one followed by […] on day two (Y10/5 μM); 2.5 μM Glycyl-H 1152 dihydrochloride (Tocris, MO) was used on day one followed by 0.5 μM on day two (H2.5/0.5 μM); 1 μM Glycyl-H 1152 dihydrochloride (Tocris, MO) was used on day one followed by 0.5 μM Glycyl-H 1152 dihydrochloride (Tocris, MO) on day two (H1/0.5 μM); or continuous addition of 0.25 μM Glycyl-H 1152 dihydrochloride (Tocris, MO) was applied daily in MEF-CM (H0.25 μM). H1 cells and micro-carriers were agitated every 45 minutes for 3 hours at 37° C. before being placed on a rocking platform at 37° C. Cells were counted after 3, 5 and 7 days on the rocking platform at 37° C. (FIG. 8). Overall the best concentration of Glycyl-H 1152 dihydrochloride (Tocris, MO) was 1-2.5 μM on day one and 0.5 μM on day 2 followed by withdrawal of the compound. […] Using a minimal amount of Rho-kinase inhibitor also helps reduce costs for the process and maybe beneficial to cell proliferation.

Test [2] relates to H1 cells. In words: Proliferation of H1 cells on micro-carriers in defined medium. Format: cell-based, human. The following applies: H1 passage 38, MEF-CM. On the procedure: H1 human embryonic stem cells at passage 38 were seeded onto either Cytodex 3® or HILLEX®II micro-carriers in the presence of Rho kinase inhibitors, 10 μM Y27632 (Sigma-Aldrich, MO) or 2.5 μM Glycyl-H 1152 dihydrochloride in mTESR (StemCell Technologies, Vancouver, Canada) or MEF-CM in a 12 well dish. The cells were placed on a rocking platform at 37° C. The cells were counted at days 3, 5 and 7.
Cells were incubated at 37° C. in a 10 cm^2 dish for 5 hours with agitation by hand every 45 minutes. mTESR (StemCell Technologies, Vancouver, Canada) plus 10 μM Y27632 (Sigma-Aldrich, MO) was changed every other day. This was conducted in parallel with cells grown in MEF-CM (Example 5).

Test [3] relates to H9 cells. The test is described as follows: Rho kinase inhibitor concentration for attachment and growth of H9 cells on micro-carriers. The following applies: H9 passage 44, MEF-CM, rocking platform. Format: cell-based, human. On the procedure: A starting aliquot of 13,333 cells/cm^2 H9 cells at passage 44 was seeded onto 15 cm^2 of micro-carriers in a single well of a 12 well non-tissue culture treated plate. The cells were placed at 37° C. for at least 60 minutes before placing them onto a rocking platform at 37° C. Prior to adding the cells, HILLEX®II (Solohill, MI) and Cytodex 3® (GE Healthcare Life Sciences, NJ) micro-carriers were prepared as directed by the manufacturer. Cells were grown in MEF-CM plus a range of Rho kinase inhibitor concentrations, Y27632 at 10, 5, 2.5 or 1 μM, or (S)-(+)-4-Glycyl-2-methyl-1-[(4-methyl-5-isoquinolinyl)sulfonyl]-hexahydro-1H-1,4-diazepine dihydrochloride (Glycyl-H 1152 dihydrochloride (H), Tocris, MO) at 5, 2.5, 1 or 0.5 μM). The medium was changed daily and one well of cells was counted at 4 and 7 days after seeding for yield and viability (FIGS. 7, A and B).

Test [4] deals with H9 cells. In words: Proliferation of H9 cells on micro-carriers in defined medium. Format: cell-based, human. The conditions noted are these: H9 p64, StemPro, 2.5 μM, on Cytodex 3 micro-carriers. From the text: To manufacture a therapeutic product, it is desirable to remove any animal components from the human embryonic stem cell culture medium. Currently human embryonic stem cells are maintained on MATRIGEL™ (BD Biosciences, CA) in medium conditioned using mouse embryonic fibroblasts (MEF-CM). Both MATRIGEL™ (BD Biosciences, CA) and MEF-CM are derived from mouse cells. Additionally, MEF-CM is an expensive and time-consuming medium to generate. To determine if human embryonic stem cells can be sustained on micro-carriers with defined medium, H9 cells were seeded onto Cytodex 3® (GE Healthcare Life Sciences, NJ) and HILLEX®II (Solohill, MI) micro-carriers in the presence of Rho kinase inhibitors, 10 μM Y27632 (Sigma-Aldrich, MO) or 2.5 μM Glycyl-H 1152 dihydrochloride (Tocris, MO) in Stem Pro (Invitrogen, CA), mTESR (StemCell Technologies, Vancouver, Canada) or MEF-CM. The cells were placed in a 12 well dish on a rocking platform at 37° C. The cells were counted at days 3, 5 and 7. […] Therefore the micro-carrier type, Rho kinase inhibitor, and medium all play a role in determining the ability of human embryonic stem cells to proliferate.

The test system of test [5] is H1 human embryonic stem cells. In words: Single cell passage of H1 cells from fibroblast feeders to PRIMARIA
Format: cell-based. The conditions noted are these: feeder free/matrix free culture on PRIMARIA, greater than 8 passages. On the procedure: Method: Cells were routinely passaged by aspirating media, washing with PBS, and then treating the cells with a dissociation enzyme (collagenase, Accutase™, or TrypLE). Collagenase was used at 1 mg/ml concentration; Accutase™ or TrypLE were used at 1× stock concentration. All enzymes were used after reaching room temperature. A solution of 2% BSA in DMEM/F12 was added to each well and cells were uniformly suspended in the solution after treating the cells with enzyme. Cells were then centrifuged for 5 minutes at 200 g, the cell pellet and additional 2% BSA in DMEM/F12 solution was added to resuspend cells and the cell suspension was distributed to three 50 ml sterile conical tubes and centrifuged for 5 min at 200 g.
Using a sequential method, the fibroblast feeders were removed by high density passaging the cluster/colony style human embryonic stem cells to a Primaria surface by treating the MEF based culture with either Accutase™, TrypLE™, or collagenase. […] Cell number for cells lifted with TrypLE™ or Accutase™ was determined by counting trypan blue stained cells with a hemocytometer. […]
2nd passage: Cells were passaged at a ratio of 1 to 4 using a 10 minutes exposure to TrypLE™ or Accutase™. A shorter enzyme exposure time, which was determined empirically by treating the cells and monitoring for detachment, was also introduced. […]

Each structure is given as a SMILES string.

As for `C[C@@H](N)[C@H]1CC[C@H](C(=O)Nc2ccncc2)CC1` [Y27632], the “attachment of H9 cells to micro-carriers” value in the test on H1 and H9 cells was “attached and formed aggregates with all micro-carriers tested”. For the same molecule, the “effect of removal of the inhibitor on attachment” value in the test on H1 cells [1] (H1 cells on micro-carriers) is recorded as “did not cause the H1 cells to dissociate”. Also, in the test on H1 cells [2] (both micro-carrier types, 10 μM), the expansion entry was “typical expansion characteristics”.

As to `Cc1cncc2cccc(S(=O)(=O)N3CCCN(C(=O)CN)C[C@@H]3C)c12.Cl.Cl` [Glycyl-H 1152 dihydrochloride, (S)-(+)-4-Glycyl-2-methyl-1-[(4-methyl-5-isoquinolinyl)sulfonyl]-hexahydro-1H-1,4-diazepine dihydrochloride], the “concentration with the best attachment (day 4)” value with H9 cells [3] is 5 µM. Besides, the “best concentration on day one” value with H1 cells [1] (H1 passage 48, MEF-CM, HILLEX II, Cytodex 1 or Cytodex 3) lay within 1 to 2.5 µM. The “best concentration on day 2” value in the test with H1 cells [1] (H1 passage 48, followed by withdrawal of the compound) worked out at 0.5 µM. In addition, the cell yield result with H1 cells [1] (cells maintained in 0.25 μM continuously) is given as “poor cell yield”. Moreover, the proliferation result in the test with H9 cells [4] is given as “did not proliferate well”. Moreover, the growth entry with H1 cells [2] (2.5 μM, on Cytodex 3) is on record as “poor growth”. Moreover, the “pluripotency and differentiation capacity of culture” value in test [5] was “retains pluripotency and the ability to differentiate to definitive endoderm”.
